Reference: paper PMC6798786 (Brain Communications, 2019)
Like-named read-outs stand apart in the source and are kept apart here.

What was measured:
scn1lab mutant zebrafish [1] = experiment: locomotion (mean swim velocity) seizure-like behaviour assay in scn1lab mutant zebrafish larvae; assay type: in vivo, Danio rerio; details: Danio rerio
Method: For locomotion studies, zebrafish larvae (5 days post-fertilization) were placed into a single well of a clear flat-bottomed 96-well microplate containing embryo media. Sex determination is not possible at this stage of development. All drug screening experiments were conducted in an unbiased manner by investigators blinded to the test compounds and all files coded for post hoc analysis. The 96-well plate containing larvae was then placed inside a DanioVision box where they were allowed to acclimate (20 min; room temperature). EthoVision XT software (DanioVision, Noldus Information Technology) was used to obtain locomotion plots (10 min in duration). Seizure scoring was performed, as described ([Baraban et al., 2005]). All locomotion plots were analysed for distance travelled (in millimetres) and mean velocity (in millimetres per second). After 90 min of drug exposure larvae were examined for toxic side-effects. Compounds that decreased or stopped the larva heartbeat, or reduced or eliminated the escape response when touched, were considered toxic.
For behaviour analysis, the threshold for a change in mean swim velocity ≥40% is considered significant (>1.5× SD of 250 control treated scn1lab). Unless otherwise indicated, all data in this manuscript are presented as the mean ± standard error of the mean. […] Statistically significant differences are indicated with asterisks (*P < 0.05; **P < 0.01; ***P < 0.001). […]

human 5-HT2AR = human 5-HT2AR (Homo sapiens, UniProt P28223); experiment: radioligand binding (NIMH PDSP)
Sequence of human 5-HT2AR (P28223 whole entry): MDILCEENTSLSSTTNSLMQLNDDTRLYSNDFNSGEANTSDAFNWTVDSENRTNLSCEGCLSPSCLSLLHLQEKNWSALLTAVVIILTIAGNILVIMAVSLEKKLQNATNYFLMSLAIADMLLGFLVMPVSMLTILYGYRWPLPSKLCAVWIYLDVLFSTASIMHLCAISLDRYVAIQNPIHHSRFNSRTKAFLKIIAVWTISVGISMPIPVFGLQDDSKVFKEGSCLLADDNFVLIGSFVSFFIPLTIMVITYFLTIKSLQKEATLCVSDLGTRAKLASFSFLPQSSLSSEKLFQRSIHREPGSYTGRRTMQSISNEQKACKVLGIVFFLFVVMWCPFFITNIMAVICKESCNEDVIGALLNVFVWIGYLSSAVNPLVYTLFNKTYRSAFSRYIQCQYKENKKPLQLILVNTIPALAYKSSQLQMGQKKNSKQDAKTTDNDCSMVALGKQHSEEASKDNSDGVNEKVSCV
Method: (§1) All in vitro binding assay and Ki data studies were performed by the US National Institute of Mental Health Psychoactive Drug Screening Program (NIMH PDSP). For these studies, drugs were screened against recombinant, stably expressed human 5-HT2AR, 5-HT2BR, 5-HT2CR and H1, as described at https://pdspdb.unc.edu/pdspWeb/ ([Besnard et al., 2012]).

human 5-HT2BR = human 5-HT2BR (Homo sapiens, UniProt P41595); experiment: radioligand binding (NIMH PDSP); details: read-out: Ki 5-HT2BR
Sequence of human 5-HT2BR (P41595 whole entry): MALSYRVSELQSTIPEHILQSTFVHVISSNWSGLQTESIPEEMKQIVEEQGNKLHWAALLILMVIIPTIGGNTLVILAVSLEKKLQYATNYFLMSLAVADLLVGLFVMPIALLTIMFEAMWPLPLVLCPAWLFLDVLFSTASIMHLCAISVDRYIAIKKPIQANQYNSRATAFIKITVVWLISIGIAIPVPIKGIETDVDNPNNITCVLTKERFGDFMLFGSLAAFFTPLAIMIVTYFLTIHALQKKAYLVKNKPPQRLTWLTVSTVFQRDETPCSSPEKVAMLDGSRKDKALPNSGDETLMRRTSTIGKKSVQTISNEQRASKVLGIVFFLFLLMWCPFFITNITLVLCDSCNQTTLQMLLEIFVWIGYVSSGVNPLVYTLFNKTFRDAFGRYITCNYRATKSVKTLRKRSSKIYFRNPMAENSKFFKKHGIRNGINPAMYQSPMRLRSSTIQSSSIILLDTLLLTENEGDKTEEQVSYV
Method: as §1

human 5-HT2CR = target: T1, human 5-HT2CR (Homo sapiens, UniProt P28335); experiment: radioligand binding (NIMH PDSP)
T1 sequence (P28335 33-458): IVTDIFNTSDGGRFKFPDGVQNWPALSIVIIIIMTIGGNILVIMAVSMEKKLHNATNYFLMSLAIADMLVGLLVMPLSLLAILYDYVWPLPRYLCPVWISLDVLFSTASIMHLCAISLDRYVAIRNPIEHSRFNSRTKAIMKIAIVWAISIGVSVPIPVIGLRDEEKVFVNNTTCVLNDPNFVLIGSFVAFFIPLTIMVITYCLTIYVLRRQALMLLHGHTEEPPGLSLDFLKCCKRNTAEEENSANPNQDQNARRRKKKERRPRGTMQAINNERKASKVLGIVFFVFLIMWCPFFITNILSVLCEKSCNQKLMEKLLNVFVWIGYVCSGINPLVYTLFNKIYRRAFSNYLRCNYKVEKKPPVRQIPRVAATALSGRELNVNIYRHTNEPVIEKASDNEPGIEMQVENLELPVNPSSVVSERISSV
Method: as §1

human H1 = human H1 (Homo sapiens, UniProt P35367); experiment: radioligand binding (NIMH PDSP); details: read-out: Ki H1
Sequence of human H1 (P35367 whole entry): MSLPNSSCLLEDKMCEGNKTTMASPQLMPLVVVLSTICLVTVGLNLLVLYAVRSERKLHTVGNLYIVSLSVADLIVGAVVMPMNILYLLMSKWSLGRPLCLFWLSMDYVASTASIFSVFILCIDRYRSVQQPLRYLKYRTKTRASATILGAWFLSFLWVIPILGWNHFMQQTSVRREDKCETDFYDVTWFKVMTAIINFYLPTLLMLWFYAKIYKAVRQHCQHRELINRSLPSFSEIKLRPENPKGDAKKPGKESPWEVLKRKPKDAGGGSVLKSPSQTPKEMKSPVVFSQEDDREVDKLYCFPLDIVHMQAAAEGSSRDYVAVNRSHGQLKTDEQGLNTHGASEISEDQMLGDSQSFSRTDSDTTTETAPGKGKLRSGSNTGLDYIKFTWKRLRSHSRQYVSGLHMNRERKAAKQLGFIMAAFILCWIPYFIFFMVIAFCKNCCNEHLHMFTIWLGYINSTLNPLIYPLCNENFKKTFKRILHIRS
Method: as §1

[2] = dissolution of compound at screening concentration; details: 250 µM
Excerpt: Ten millimolars of compound stock solutions were made in dimethyl sulfoxide and then diluted in embryo medium for assays.

scn1lab mutant zebrafish [3] = system: scn1lab mutant zebrafish; design: method as in Dinday and Baraban, 2015; Sourbron et al., 2016; details: ref Dinday and Baraban, 2015; Sourbron et al., 2016; cited from earlier work
5-HT1B = details: known drugs of Table 1; reference not given; cited from earlier work
5-HT1D = details: known drugs of Table 1; reference not given; cited from earlier work
5-HT6 = details: known drugs of Table 1; reference not given; cited from earlier work
5-HT7 = details: known drugs of Table 1; reference not given; cited from earlier work
Adrenergic alpha1B = details: known drugs of Table 1; reference not given; cited from earlier work
[4] = use as anorectic; ref Abenhaim et al., 1996; Khan et al., 1998; cited from earlier work
human 5-HT2R = experiment: radioligand binding (NIMH PDSP), any 5-HT2R subtype; details: 5-HT2AR, 5-HT2BR, 5-HT2CR
Method: as §1
Additionally, 5-HT2R modulating compounds exert antiepileptic activity in both preclinical ([Sourbron et al., 2016]; [Griffin et al., 2017]) and clinical studies ([Griffin et al., 2017]; [Schoonjans et al., 2017]; [Kauppila et al., 2018]). […] […].

5-HT1A = details: known drugs of Table 1; reference not given; cited from earlier work
5-HT5 = details: known drugs of Table 1; reference not given; cited from earlier work
5-HT transporter = details: known drugs of Table 1; reference not given; cited from earlier work
DOPAMINE D2 = details: known drugs of Table 1; reference not given; cited from earlier work
Dopamine transporter = details: known drugs of Table 1; reference not given; cited from earlier work
Histamine H2 = details: known drugs of Table 1; reference not given; cited from earlier work
[5] = target: Norepinephrine transporter; details: known drugs of Table 1; reference not given; cited from earlier work
Adrenergic alpha1A = details: read-out: Ki Adrenergic alpha1A; known drugs of Table 1; reference not given; cited from earlier work
Adrenergic alpha2A = details: read-out: Ki Adrenergic alpha2A; known drugs of Table 1; reference not given; cited from earlier work
Adrenergic alpha2B = details: read-out: Ki Adrenergic alpha2B; known drugs of Table 1; reference not given; cited from earlier work
Adrenergic alpha2C = details: read-out: Ki Adrenergic alpha2C; known drugs of Table 1; reference not given; cited from earlier work
Adrenergic beta1 = details: read-out: Ki Adrenergic beta1; known drugs of Table 1; reference not given; cited from earlier work
Adrenergic beta2 = details: read-out: Ki Adrenergic beta2; known drugs of Table 1; reference not given; cited from earlier work
DOPAMINE D1 = details: read-out: Ki DOPAMINE D1; known drugs of Table 1; reference not given; cited from earlier work
DOPAMINE D4 = details: read-out: Ki DOPAMINE D4; known drugs of Table 1; reference not given; cited from earlier work
DOPAMINE D5 = details: read-out: Ki DOPAMINE D5; known drugs of Table 1; reference not given; cited from earlier work
[6] = read-out: % change in velocity, individual larva 1 (heat map)
[7] = read-out: % change in velocity, individual larva 2 (heat map)
[8] = read-out: % change in velocity, individual larva 3 (heat map)
[9] = read-out: % change in velocity, individual larva 4 (heat map)
[10] = read-out: % change in velocity, individual larva 5 (heat map)
[11] = read-out: % change in velocity, individual larva 6 (heat map)
[12] = read-out: mean velocity change from six fish, Trial 1
[13] = recombinant, stably expressed human receptor, clemizole analogues

CC(C)(C)OC(=O)N1CCN(Cc2nc3ccccc3n2Cc2ccc(Cl)cc2)CC1 [Compound 25]
change in vivo at 100 µM (scn1lab mutant zebrafish [1]; [6]): -56% | change in vivo at 250 µM (scn1lab mutant zebrafish [1]; [6]): -87% | change in vivo at 100 µM (scn1lab mutant zebrafish [1]; [7]): 91.3% | change in vivo at 250 µM (scn1lab mutant zebrafish [1]; [7]): -92.4% | change in vivo at 100 µM (scn1lab mutant zebrafish [1]; [8]): -65.8% | change in vivo at 250 µM (scn1lab mutant zebrafish [1]; [8]): -76.5% | change in vivo at 100 µM (scn1lab mutant zebrafish [1]; [9]): 78.7% | change in vivo at 250 µM (scn1lab mutant zebrafish [1]; [9]): -56.9% | change in vivo at 100 µM (scn1lab mutant zebrafish [1]; [10]): 35.7% | change in vivo at 250 µM (scn1lab mutant zebrafish [1]; [10]): -100% | change in vivo at 100 µM (scn1lab mutant zebrafish [1]; [11]): 153% | change in vivo at 250 µM (scn1lab mutant zebrafish [1]; [11]): -23.6% | change in vivo at 100 µM (scn1lab mutant zebrafish [1]; [12]): 42% | change in vivo at 250 µM (scn1lab mutant zebrafish [1]; [12]): -82.5% | change in vivo at 100 µM (scn1lab mutant zebrafish [1]; read-out: mean velocity change from six fish, Trial 2): 42% | Ki (human 5-HT2AR): 2380 nM | Ki (human 5-HT2BR): 482 nM | Ki (human 5-HT2CR): 2260 nM | Ki (human H1): 76 nM | going into solution at screening concentration [2]: failed to go into solution

CCNC(C)Cc1cccc(C(F)(F)F)c1 (stereo not drawn) [fenfluramine]
suppression of spontaneous seizures in scn1lab zebrafish (earlier work) (scn1lab mutant zebrafish [3]): effective in suppressing spontaneous seizures | Ki (5-HT1B): 1840 nM | Ki (5-HT1D): 1260 nM | Ki (5-HT6): 9080 nM | Ki (5-HT7): 7310 nM | Ki (Adrenergic alpha1B): 142 nM | patients with heart valve defects [4]: ~25%

FC1(F)CCC(Cn2c(CN3CCCC3)nc3ccccc32)CC1 [Compound 17]
Ki (human 5-HT2AR; [13]): > 10000 nM | Ki (human 5-HT2BR; [13]): > 10000 nM | Ki (human 5-HT2CR; [13]): > 10000 nM | Ki (human H1; [13]): 137 nM | binding to any human 5-HT2R (human 5-HT2R): no significant binding

C[C@H]1CNCCc2ccc(Cl)cc21 [lorcaserin]
Ki (5-HT1A): 700 nM | Ki (5-HT5): 3710 nM | Ki (5-HT6): 1980 nM | Ki (5-HT7): 636 nM | Ki (5-HT transporter): 990 nM | Ki (Adrenergic alpha1B): > 10000 nM | Ki (DOPAMINE D2): > 10000 nM | Ki (Dopamine transporter): > 10000 nM | Ki (Histamine H2): > 10000 nM | Ki [5]: 1400 nM | Ki (Adrenergic alpha1A): > 10000 nM | Ki (Adrenergic alpha2A): > 10000 nM | Ki (Adrenergic alpha2B): > 10000 nM | Ki (Adrenergic alpha2C): > 10000 nM | Ki (Adrenergic beta1): > 10000 nM | Ki (Adrenergic beta2): > 10000 nM | Ki (DOPAMINE D1): > 10000 nM | Ki (DOPAMINE D4): > 10000 nM | Ki (DOPAMINE D5): > 10000 nM
